Measurements as given in patent US8324406B2, “Antitumoral dihydropyran-2-one compounds” (priority 2006, dated 2012).
Read-outs that look alike come from different tables or passages of the source.

Tests used:
Assay in all cases: cells
Assay type in all cases: cell-based
Conditions in all cases: Homo sapiens; for IC (TGI): read-out: TGI
HT29 = test system: HT29
Text: (§1) The aim of this assay is to evaluate the in vitro cytostatic (ability to delay or arrest tumor cell growth) or cytotoxic (ability to kill tumor cells) activity of the samples being tested.
(§2) Evaluation of Cytotoxic Activity Using the SBR Colorimetric Assay
(§3) A colorimetric type of assay, using sulforhodamine B (SRB) reaction has been adapted for a quantitative measurement of cell growth and viability (following the technique described by Skehan P et al. J. Natl. Cancer Inst. 1990, 82, 1107-1112).
(§4) This form of assay employs SBS-standard 96-well cell culture microplates (Faircloth et al. Methods in cell science, 1988, 11(4), 201-205; Mosmann et al, Journal of. Immunological. Methods, 1983, 65(1-2), 55-63). All the cell lines used in this study, derived from different types of human cancer, were obtained from the American Type Culture Collection (ATCC).
(§5) Cells were maintained in Dulbecco's Modified Eagle Medium (DMEM) supplemented with 10% Fetal Bovine Serum (FBS), 2 mM L-glutamine, 100 U/mL penicillin and 100 U/mL streptomycin at 37° C., 5% CO2 and 98% humidity. For the experiments, cells were harvested from subconfluent cultures using trypsinization and resuspended in fresh medium before counting and plating.
(§6) Cells were seeded in 96 well microtiter plates at 5×10^3 cells per well in aliquots of 150 μL, and allowed to attach to the plate surface for 18 hours in drug free medium. One control (untreated) plate of each cell line was fixed (as described below) and used for time zero reference value. Afterwards, test samples were added to the cultures in ten serial dilutions, in aliquots of 50 μL, ranging from 10 to 0.00262 μg/mL. After 48 hours exposure, the antitumor effect was estimated by the SRB method: Briefly, cells were washed twice with PBS, fixed for 15 min in 1% glutaraldehyde solution, rinsed twice in PBS, and stained in 0.4% SRB solution for 30 min at room temperature. Cells were then rinsed several times with 1% acetic acid solution and air-dried. SRB was then extracted in 10 mM trizma base solution and the absorbance measured in an automated spectrophotometric plate reader at 490 nm. Cell survival was expressed as percentage of control cell growth. The final effect of the sample being tested was estimated by applying the NCI algorithm (Boyd M R and Paull K D. Drug Dev. Res. 1995, 34, 91-104).
(§7) Using the mean±SD of triplicate cultures, a dose-response curve was automatically generated using nonlinear regression analysis. Three reference parameters were calculated (NCI algorithm) by automatic interpolation: GI50=concentration that produces 50% growth inhibition; TGI=total growth inhibition (cytostatic effect) and LC50=concentration that produces 50% net cell killing (cytotoxic effect).

MDA-MB-231 = test system: MDA-MB-231
Text: as §1, §2, §3, §4, §5, §6, §7

A549 = test system: A549
Text: as §1, §2, §3, §4, §5, §6, §7

[1] = HT-29, HT29, 48 hours exposure, SRB, 50% net cell killing (cytotoxic effect), read-out: LC50 (the source's name)
[2] = HT-29, HT29, 48 hours exposure, SRB, concentration that produces 50% growth inhibition, read-out: GI50
[3] = HT-29, HT29, 48 hours exposure, SRB, total growth inhibition (cytostatic effect)
[4] = MDA-MB-231, 48 hours exposure, SRB, 50% net cell killing (cytotoxic effect), read-out: LC50 (the source's name)
[5] = MDA-MB-231, 48 hours exposure, SRB, concentration that produces 50% growth inhibition, read-out: GI50
[6] = MDA-MB-231, 48 hours exposure, SRB, total growth inhibition (cytostatic effect)
[7] = A549, 48 hours exposure, SRB, 50% net cell killing (cytotoxic effect), read-out: LC50 (the source's name)
[8] = A549, 48 hours exposure, SRB, concentration that produces 50% growth inhibition, read-out: GI50
[9] = A549, 48 hours exposure, SRB, total growth inhibition (cytostatic effect)
[10] = MDA-MB-231, 48 h, read-out: LC50

SMILES	CC50 (HT29; [1]) [nM]	GI50 (HT29; [2]) [nM]	IC (TGI) (HT29; [3]) [nM]	CC50 (MDA-MB-231; [4]) [nM]	GI50 (MDA-MB-231; [5]) [nM]	IC (TGI) (MDA-MB-231; [6]) [nM]	CC50 (A549; [7]) [nM]	GI50 (A549; [8]) [nM]	IC (TGI) (A549; [9]) [nM]	GI50 (HT29; HT-29, 48 h) [nM]	CC50 (HT29; HT-29, 48 h, read-out: LC50) [nM]	IC (TGI) (HT29; HT-29, 48 h) [nM]	GI50 (MDA-MB-231; MDA-MB-231, 48 h) [nM]	CC50 (MDA-MB-231; [10]) [nM]	IC (TGI) (MDA-MB-231; MDA-MB-231, 48 h) [nM]	GI50 (A549; A549, 48 h) [nM]	CC50 (A549; A549, 48 h, read-out: LC50) [nM]	IC (TGI) (A549; A549, 48 h) [nM]
COC1=CC[C@@H]([C@@H](C)/C=C(C)/C=C\C=C/C(=O)N[C@@H](C(N)=O)C(C)(C)C)OC1=O [(15R)-7]	1310	346	593	> 24700	766	2470	> 24700	1040	3460									
COC1=CC[C@@H]([C@@H](C)/C=C(C)/C=C\C=C/C(=O)N[C@H](C(=O)N/C=C\C[C@@H](C/C=C(\C)Cl)OC(N)=O)C(C)C)OC1=O [(21S)-5]	3.88	2.53	2.87	103	4.56	18.6	> 1690	6.92	28.7									
COC1=CC[C@@H]([C@@H](C)/C=C(C)/C=C\C=C/C(=O)N[C@H](C(=O)N/C=C\C[C@H](O)C/C=C(\C)Cl)C(C)(C)C)OC1=O [(21S)-30a]	> 1630	2.66	3.02	284	2.49	21.3	> 1630	3.73	195									
COC1=CC[C@@H]([C@@H](C)/C=C(C)/C=C/C=C/C(=O)N[C@H](C(=O)N/C=C\C[C@H](C/C=C(\C)Cl)OC(N)=O)C(C)(C)C)OC1=O [Compound 3]										0.445	> 165	0.759	0.924	9.57	2.47	1.02	> 165	4.29
C/C=C\C[C@@H](C/C=C\NC(=O)[C@@H](NC(=O)\C=C/C=C\C(C)=C\[C@H](C)[C@@H]1CC=C(OC)C(=O)O1)C(C)(C)C)OC(N)=O [Compound 4]		< 0.431	0.928		0.613	1.49		0.595	2.45		1.12			8.23			> 1640	
COC1=CC[C@@H]([C@@H](C)/C=C(C)/C=C\C=C/C(=O)N[C@H](C(=O)N/C=C\C[C@H](C/C=C(\C)Cl)OC(N)=O)C(C)C)OC1=O [Compound 5]	> 169	0.0439	0.128	4.9	0.103	0.456	> 169	0.0608	0.321									
COC1=CCC(C(C)/C=C(C)/C=C/C=C\C(=O)NC(C(=O)N/C=C\CC(C/C=C(\C)Cl)OC(N)=O)C(C)C)OC1=O (stereo not drawn) [Compound 6]	4.9	0.591	1.01	15.5	0.49	3.21	> 1640	0.76	> 1640									
COC1=CC[C@@H]([C@@H](C)/C=C(C)/C=C\C=C/C(=O)N[C@H](C(N)=O)C(C)(C)C)OC1=O [Compound 7]	816	420	544	2450	420	841	> 2470	618	1190									
COC1=CC[C@@H]([C@@H](C)/C=C(C)/C=C\C=C\C(=O)N[C@H](C(=O)N/C=C\C[C@H](C/C=C(\C)Cl)OC(N)=O)C(C)(C)C)OC1=O [Compound 8]										2.14	6.27	3.13	3.46	41.2	10.1	3.63	> 1650	13
COC1=CC[C@@H]([C@@H](C)/C=C(C)/C=C\C=C/C(=O)N[C@H](C(=O)N/C=C\C[C@H](C/C=C(\C)Cl)O[Si](C)(C)C(C)(C)C)C(C)(C)C)OC1=O [Compound 29a]	4430	605	1420	6200	1180	2800	8560	886	3400									
COC1=CC[C@@H]([C@@H](C)/C=C(C)/C=C\C=C/C(=O)N[C@@H](Cc2ccccc2)C(=O)N/C=C\C[C@H](C/C=C(\C)Cl)O[Si](C)(C)C(C)(C)C)OC1=O [Compound 29d]	928	829	872	1830	1100	1390	1380	464	801									
COC1=CC[C@@H]([C@@H](C)/C=C(C)/C=C\C=C\C(=O)N[C@H](C(=O)N/C=C\C[C@H](C/C=C(\C)Cl)O[Si](C)(C)C(C)(C)C)C(C)(C)C)OC1=O [Compound 29e]	2360	2070	2210	2070	1140	1480	2660	1150	1770									
COC1=CC[C@@H]([C@@H](C)/C=C(C)/C=C\C=C/C(=O)N[C@H](C(=O)N/C=C\C[C@@H](O)C/C=C(\C)Cl)C(C)(C)C)OC1=O [Compound 30a]	10.1	1.35	2.13	85.2	1.95	9.41	> 1780	2.31	137									
C/C=C\C[C@H](O)C/C=C\NC(=O)[C@@H](NC(=O)\C=C/C=C\C(C)=C\[C@H](C)[C@@H]1CC=C(OC)C(=O)O1)C(C)(C)C [Compound 30b]	4730	9.84	92.7	5110	20.8	511	> 18900	22.7	322									
